Laboratory results: PMC4836378 (Journal of medicinal chemistry, 2016)
Read-outs that look alike come from different tables or passages of the source. Each block holds one molecule with its values, some of them ahead of it.

Experiments:
CYP26A1 = biological target: T1, CYP26A1 (Homo sapiens, UniProt O43174); assay: CYP26A1 inhibition assay; conditions: for Selectivity towards CYP26A1 compared to CYP26B1 (ratio of IC50): CYP26B1 IC50 versus CYP26A1 IC50
T1 sequence (O43174 1-497): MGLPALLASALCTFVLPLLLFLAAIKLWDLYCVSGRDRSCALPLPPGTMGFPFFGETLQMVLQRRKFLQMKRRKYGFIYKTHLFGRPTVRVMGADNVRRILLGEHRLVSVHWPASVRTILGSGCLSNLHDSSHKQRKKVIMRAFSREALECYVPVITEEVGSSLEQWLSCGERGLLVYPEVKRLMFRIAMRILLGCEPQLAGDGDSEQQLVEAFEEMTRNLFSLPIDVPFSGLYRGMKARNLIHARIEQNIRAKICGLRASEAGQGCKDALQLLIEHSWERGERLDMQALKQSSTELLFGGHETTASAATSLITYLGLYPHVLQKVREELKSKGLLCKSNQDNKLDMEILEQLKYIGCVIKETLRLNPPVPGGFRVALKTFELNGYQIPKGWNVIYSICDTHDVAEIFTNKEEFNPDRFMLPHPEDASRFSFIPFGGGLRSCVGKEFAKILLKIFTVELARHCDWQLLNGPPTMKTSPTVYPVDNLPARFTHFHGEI

CYP26B1 = biological target: T2, CYP26B1 (Homo sapiens, UniProt Q9NR63); assay: CYP26B1 inhibition assay
T2 sequence (Q9NR63 1-512): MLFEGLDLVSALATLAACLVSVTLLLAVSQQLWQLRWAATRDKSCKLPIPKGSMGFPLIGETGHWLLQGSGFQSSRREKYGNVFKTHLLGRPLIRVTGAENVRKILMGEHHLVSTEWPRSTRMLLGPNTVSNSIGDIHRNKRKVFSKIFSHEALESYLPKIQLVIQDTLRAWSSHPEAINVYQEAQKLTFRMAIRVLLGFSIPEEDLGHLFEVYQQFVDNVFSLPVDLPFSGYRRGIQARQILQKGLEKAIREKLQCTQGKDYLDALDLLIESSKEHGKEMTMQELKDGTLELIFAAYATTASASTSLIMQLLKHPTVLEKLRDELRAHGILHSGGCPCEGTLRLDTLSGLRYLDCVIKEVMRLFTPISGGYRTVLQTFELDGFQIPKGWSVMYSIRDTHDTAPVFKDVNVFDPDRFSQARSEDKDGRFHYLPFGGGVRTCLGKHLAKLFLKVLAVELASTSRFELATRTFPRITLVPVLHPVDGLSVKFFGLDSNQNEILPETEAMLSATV

human RARα = biological target: T3, human RARα (Homo sapiens, UniProt P10276); assay: Luciferase-based RARα reporter assay; format: cell-based; conditions: 1 μM compound, data not shown
T3 sequence (P10276 1-462): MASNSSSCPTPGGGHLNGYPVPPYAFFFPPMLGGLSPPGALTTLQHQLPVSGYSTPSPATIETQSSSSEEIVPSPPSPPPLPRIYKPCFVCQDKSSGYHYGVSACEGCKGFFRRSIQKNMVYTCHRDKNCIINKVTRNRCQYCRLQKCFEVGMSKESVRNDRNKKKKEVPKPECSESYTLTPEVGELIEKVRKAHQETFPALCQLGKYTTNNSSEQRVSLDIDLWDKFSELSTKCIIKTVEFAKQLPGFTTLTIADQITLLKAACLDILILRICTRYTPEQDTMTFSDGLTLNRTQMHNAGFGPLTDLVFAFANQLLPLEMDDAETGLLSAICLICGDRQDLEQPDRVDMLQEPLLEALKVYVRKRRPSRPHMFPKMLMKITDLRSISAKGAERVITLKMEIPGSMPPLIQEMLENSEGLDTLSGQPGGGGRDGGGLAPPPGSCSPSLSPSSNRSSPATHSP

human RARγ = biological target: T4, human RARγ (Homo sapiens, UniProt P13631); assay: Luciferase-based RARγ reporter assay; format: cell-based; conditions: 1 μM compound, data not shown
T4 sequence (P13631 1-454): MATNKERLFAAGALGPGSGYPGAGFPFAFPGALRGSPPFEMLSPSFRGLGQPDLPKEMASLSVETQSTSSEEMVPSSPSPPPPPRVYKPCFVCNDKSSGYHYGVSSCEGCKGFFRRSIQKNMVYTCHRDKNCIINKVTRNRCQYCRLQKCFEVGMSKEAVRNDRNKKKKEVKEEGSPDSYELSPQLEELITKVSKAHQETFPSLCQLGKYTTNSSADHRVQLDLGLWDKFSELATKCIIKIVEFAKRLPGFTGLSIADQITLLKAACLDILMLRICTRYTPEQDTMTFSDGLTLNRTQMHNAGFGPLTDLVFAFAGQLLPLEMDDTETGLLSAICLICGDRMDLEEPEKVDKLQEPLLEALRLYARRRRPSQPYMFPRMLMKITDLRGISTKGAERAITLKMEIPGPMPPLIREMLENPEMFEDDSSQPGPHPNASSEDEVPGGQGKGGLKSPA

RARs in HepG2 cells = assay: Induction of RARβ and CYP26A1 mRNA in HepG2 cells; format: cell-based, human; conditions: for RAR antagonistic activity: 100 nM atRA + 1 μM compound; for Magnitude of induction of RARβ and CYP26A1 mRNA compared to atRA treatment alone: 100 nM atRA in combination with 1 μM compound; for Activation of RARs (induction of CYP26A1 and RARβ mRNA): 1 μM compound alone, 24 hours, versus vehicle and atRA
CYP3A4 = CYP3A4 (Homo sapiens, UniProt P08684); assay: CYP3A4 inhibition in human liver microsomes; format: in vitro ADME; conditions: midazolam; for Percent inhibition of CYP3A4: 10 μM inhibitor, 10 µM
Sequence of CYP3A4 (P08684 whole entry): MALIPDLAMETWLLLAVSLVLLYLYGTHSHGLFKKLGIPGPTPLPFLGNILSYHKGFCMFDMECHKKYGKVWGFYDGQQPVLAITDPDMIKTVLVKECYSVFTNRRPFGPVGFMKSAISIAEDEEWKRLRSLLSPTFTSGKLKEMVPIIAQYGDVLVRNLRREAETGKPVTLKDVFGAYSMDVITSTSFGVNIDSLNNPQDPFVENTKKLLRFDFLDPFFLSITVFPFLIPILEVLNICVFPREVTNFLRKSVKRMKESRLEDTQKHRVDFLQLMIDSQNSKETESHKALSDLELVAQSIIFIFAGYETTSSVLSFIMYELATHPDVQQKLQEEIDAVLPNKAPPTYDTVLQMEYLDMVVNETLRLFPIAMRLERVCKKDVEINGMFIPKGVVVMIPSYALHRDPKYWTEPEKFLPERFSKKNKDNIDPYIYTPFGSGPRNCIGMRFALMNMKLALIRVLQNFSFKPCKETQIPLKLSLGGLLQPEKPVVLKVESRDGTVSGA

CYP2D6 = CYP2D6 (Homo sapiens, UniProt P10635); assay: CYP2D6 inhibition in human liver microsomes; format: in vitro ADME
Sequence of CYP2D6 (P10635 whole entry): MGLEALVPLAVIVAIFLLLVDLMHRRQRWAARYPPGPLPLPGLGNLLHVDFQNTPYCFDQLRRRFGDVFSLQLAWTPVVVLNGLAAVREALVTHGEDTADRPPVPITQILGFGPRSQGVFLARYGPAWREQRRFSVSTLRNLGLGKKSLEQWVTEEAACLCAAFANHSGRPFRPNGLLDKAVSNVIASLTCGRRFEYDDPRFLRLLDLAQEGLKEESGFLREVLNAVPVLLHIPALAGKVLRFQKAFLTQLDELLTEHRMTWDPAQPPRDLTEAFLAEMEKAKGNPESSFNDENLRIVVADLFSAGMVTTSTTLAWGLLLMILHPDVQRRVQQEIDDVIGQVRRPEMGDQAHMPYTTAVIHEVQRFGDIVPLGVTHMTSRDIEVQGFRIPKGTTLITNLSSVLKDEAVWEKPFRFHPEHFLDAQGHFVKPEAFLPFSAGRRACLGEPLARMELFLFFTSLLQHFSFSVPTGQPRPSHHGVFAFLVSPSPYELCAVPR

CYP2C19 = CYP2C19 (Homo sapiens, UniProt P33261); assay: CYP2C19 inhibition in human liver microsomes; format: in vitro ADME; conditions: 10 μM inhibitor, (S)-mephenytoin
Sequence of CYP2C19 (P33261 whole entry): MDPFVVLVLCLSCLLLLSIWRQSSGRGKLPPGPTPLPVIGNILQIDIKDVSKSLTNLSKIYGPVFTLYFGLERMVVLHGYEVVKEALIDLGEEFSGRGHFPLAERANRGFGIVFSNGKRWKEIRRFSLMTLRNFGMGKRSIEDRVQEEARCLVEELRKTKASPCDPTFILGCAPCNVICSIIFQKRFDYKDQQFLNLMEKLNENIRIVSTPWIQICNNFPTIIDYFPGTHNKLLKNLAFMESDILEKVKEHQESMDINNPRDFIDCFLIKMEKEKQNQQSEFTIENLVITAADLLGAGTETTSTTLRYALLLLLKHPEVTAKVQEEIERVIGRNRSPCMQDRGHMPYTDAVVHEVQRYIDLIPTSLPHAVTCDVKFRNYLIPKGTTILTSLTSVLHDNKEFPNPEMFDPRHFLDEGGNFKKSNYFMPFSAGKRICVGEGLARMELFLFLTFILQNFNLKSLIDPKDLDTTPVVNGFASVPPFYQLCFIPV

CYP2B6 = biological target: T5, CYP2B6 (Homo sapiens, UniProt P20813); assay: CYP2B6 inhibition in human liver microsomes; format: in vitro ADME; conditions: 10 μM inhibitor, bupropion
T5 sequence (P20813 1-491): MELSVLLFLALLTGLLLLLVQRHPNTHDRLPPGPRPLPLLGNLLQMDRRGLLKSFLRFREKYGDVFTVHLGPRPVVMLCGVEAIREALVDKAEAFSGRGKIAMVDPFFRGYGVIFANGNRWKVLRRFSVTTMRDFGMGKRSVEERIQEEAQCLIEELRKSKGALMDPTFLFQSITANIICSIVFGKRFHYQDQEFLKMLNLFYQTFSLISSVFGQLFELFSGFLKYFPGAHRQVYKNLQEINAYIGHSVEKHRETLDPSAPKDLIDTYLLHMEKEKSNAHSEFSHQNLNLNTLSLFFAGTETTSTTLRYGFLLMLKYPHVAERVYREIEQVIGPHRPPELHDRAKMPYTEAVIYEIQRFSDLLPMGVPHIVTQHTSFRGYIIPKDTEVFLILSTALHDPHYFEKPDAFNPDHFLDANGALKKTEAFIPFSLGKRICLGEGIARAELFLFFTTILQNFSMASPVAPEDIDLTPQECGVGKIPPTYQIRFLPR

[1] = system: atRA metabolism in HepG2 cells; conditions: HepG2, 24 hour treatment
[2] = substrate: CC1=C(/C=C/C(C)=C\C=C\C(C)=C\C(=O)O)C(C)(C)CCC1; assay: cells, lysate or membranes named; conditions: other: recombinant CYP26B1, 50-1000 nM 9-cis-RA; pH 7.4; 37.0 °C

Ki (CYP26A1): 5.1 nM
Ki (CYP26B1): 0.46 nM
Molecule: CCC(CC)C(c1ccc(Nc2nc3ccccc3s2)cc1)n1cncn1 (stereo not shown) [Compound 3, talarozole]

Selectivity towards CYP26A1 compared to CYP26B1 (ratio of IC50) (CYP26A1): 10–20 fold
Molecule: CC1(C)CCC(C)(C)c2cc(C3(c4ccc5cc(C(=O)O)ccc5c4)OCCO3)ccc21 [Compound 13b, 6-(2-(5,5,8,8-Tetramethyl-5,6,7,8-tetrahydronaphthalen-2-yl)-1,3-dioxolan-2-yl)-2-naphthoic acid]

Selectivity towards CYP26A1 compared to CYP26B1 (ratio of IC50) (CYP26A1): 10–20 fold
Molecule: CC1(C)CCC(C)(C)c2cc(C3(c4ccc5cc(C(=O)O)ccc5c4)SCCS3)ccc21 [Compound 15b, 6-(2-(5,5,8,8-Tetramethyl-5,6,7,8-tetrahydronaphthalen-2-yl)-1,3-dithiolan-2-yl)-2-naphthoic acid]

Percent inhibition of CYP3A4 (CYP3A4): free of any CYP3A4 inhibition
inhibition at 10 µM (CYP2D6; human, probe dextromethorphan): 50%
Molecule: CC1(C)CCC(C)(C)c2cc(C3(c4ccc(/C=C/C(=O)O)cc4)OCCO3)ccc21 [Compound 22, (E)-3-(4-(2-(5,5,8,8-Tetramethyl-5,6,7,8-tetrahydronaphthalen-2-yl)-1,3-dioxolan-2-yl)phenyl)-acrylic acid]
RARα activation (human RARα): No measurable RARα and RARγ activation was detected
RARγ activation (human RARγ): No measurable RARα and RARγ activation was detected
RAR antagonistic activity (RARs in HepG2 cells): do not exhibit an RAR antagonistic activity
Magnitude of induction of RARβ and CYP26A1 mRNA compared to atRA treatment alone (RARs in HepG2 cells): significantly increased
Activation of RARs (induction of CYP26A1 and RARβ mRNA) (RARs in HepG2 cells): none of the three compounds resulted in activation

Percent inhibition of CYP3A4 (CYP3A4): free of any CYP3A4 inhibition
IC50 for CYP3A4 inhibition (CYP3A4): no concentration dependent inhibition
Percent inhibition of CYP2D6 (CYP2D6; 10 μM inhibitor, dextromethorphan, 10 µM): free of any significant inhibition
Percent inhibition of CYP2C19 (CYP2C19): free of any significant inhibition
Percent inhibition of CYP2B6 (CYP2B6): free of any significant inhibition
Molecule: CC1(C)CCC(C)(C)c2cc(C3(c4ccc(CCC(=O)O)cc4)OCCO3)ccc21 [Compound 24, 3-{4-[2-(5,5,8,8-Tetramethyl-5,6,7,8-tetrahydronaphthalen-2-yl)-1,3-dioxolan-2-yl]phenyl}4 propanoic acid]
RARα activation (human RARα): No measurable RARα and RARγ activation was detected
RARγ activation (human RARγ): No measurable RARα and RARγ activation was detected
RAR antagonistic activity (RARs in HepG2 cells): do not exhibit an RAR antagonistic activity
Magnitude of induction of RARβ and CYP26A1 mRNA compared to atRA treatment alone (RARs in HepG2 cells): significantly increased
Activation of RARs (induction of CYP26A1 and RARβ mRNA) (RARs in HepG2 cells): none of the three compounds resulted in activation

Molecule: CC1=C(/C=C/C(C)=C/C=C/C(C)=C/C(=O)O)C(C)(C)CCC1 [atRA, all-trans-retinoic acid]
atRA in cell media ([1]; 100nM atRA alone): 13.2 ± 0.14 nM
atRA in cell media ([1]; 1μM atRA alone): 214 ± 13.6 nM

B1: CYP26B1 (Homo sapiens) (protein)
chain: MLFEGLDLVSALATLAACLVSVTLLLAVSQQLWQLRWAATRDKSCKLPIPKGSMGFPLIGETGHWLLQGSGFQSSRREKYGNVFKTHLLGRPLIRVTGAENVRKILMGEHHLVSTEWPRSTRMLLGPNTVSNSIGDIHRNKRKVFSKIFSHEALESYLPKIQLVIQDTLRAWSSHPEAINVYQEAQKLTFRMAIRVLLGFSIPEEDLGHLFEVYQQFVDNVFSLPVDLPFSGYRRGIQARQILQKGLEKAIREKLQCTQGKDYLDALDLLIESSKEHGKEMTMQELKDGTLELIFAAYATTASASTSLIMQLLKHPTVLEKLRDELRAHGILHSGGCPCEGTLRLDTLSGLRYLDCVIKEVMRLFTPISGGYRTVLQTFELDGFQIPKGWSVMYSIRDTHDTAPVFKDVNVFDPDRFSQARSEDKDGRFHYLPFGGGVRTCLGKHLAKLFLKVLAVELASTSRFELATRTFPRITLVPVLHPVDGLSVKFFGLDSNQNEILPETEAMLSATV
Km [2]: 0.555 µM
kcat [2]: 3.6 pmol/min/pmol P450
